Source: PMC3303948 (Steroids, 2012)
Where “and” joins values, the source holds several entries; their conditions need not be identical. Identical values can stand only once.

Assays:
[1] = 0.5 µg/kg once weekly; oncology setting; cited from earlier work
[2] = Compartmental analysis of plasma and tumor 1,25
[3] = Plasma pharmacokinetics of 1,25; format: in vivo, nu/nu mice
Tumor = format: in vivo, nu/nu mice
CYP24 mRNA [4] = assay: CYP24 mRNA expression in H292 cells in vitro
CYP24 mRNA [5] = assay: CYP24 mRNA expression in H292 xenografts in vivo
CYP24 [6] = conditions: in vitro; 50 nM CTA091; ref Zhang et al., manuscript under review; cited from earlier work
[7] = ref personal communication, M. Petkovich; cited from earlier work
CYP27B1 mRNA = CYP27B1 mRNA expression in H292 cells in vitro; format: cell-based, human; conditions: data not shown
CYP24 [8] = conditions: cited from earlier work
[9] = compartmental model, tumor volume fixed at 1 L/kg
[10] = female, nu/nu, mouse, plasma, ip, 20 ug/kg
[11] = female, nu/nu, mouse, tumor (H292 xenograft), ip, 20 ug/kg
[12] = compartmental model, 250 µg/kg CTA091
[13] = 250 µg/kg CTA091 i.p. with 20 µg/kg 1,25(OH)2D3 versus 1,25(OH)2D3 alone
[14] = rats, a similar dose (to 250 µg/kg)

Structure (SMILES): C=C1/C(=C\C=C2/CCC[C@]3(C)[C@@H]([C@H](C)CCCC(C)(C)O)CC[C@@H]23)C[C@@H](O)C[C@@H]1O [1,25(OH)2D3, 1,25-dihydroxyvitamin D3]
- Safety of high-dose 1,25(OH)2D3 [1]: safely delivered
- kct, transfer rate constant from the central to the tumor compartment, Estimate (%SE) [2, 9]: 0.454 (18) h^−1
- ktc, transfer rate constant from the tumor to the central compartment, Estimate (%SE) [2, 9]: 1.24 (22) h^−1
- CL/F [2, 10]: 4.85 mL/min/kg
- Vd/F [2, 10]: 0.653 L/kg
- half-life [2, 10]: 1.56 h
- k el [2, 10]: 0.000124 s⁻¹
- k el ([2]; female, nu/nu, mouse, tumor (H292 xenograft), intraperitoneal, 20 µg/kg): 0.000292 s⁻¹
- half-life [2, 11]: 0.661 h
- k el [2, 11]: 0.000289 s⁻¹
- AUC(0-inf) [3, 10]: 69.1 ng·h/mL
- AUC(0-t) [3, 10]: 67.4 ng·h/mL
- CL/F [3, 10]: 4.82 mL/min/kg
- Cmax [3, 10]: 21.6 ng/mL
- Tmax [3, 10]: 0.25 h
- Vd/F [3, 10]: 0.592 L/kg
- half-life [3, 10]: 1.42 h
- k el [3, 10]: 0.000136 s⁻¹
- Tmax ([3]; female, nu/nu, mouse, plasma, ip, 20 µg/kg): 0.25 to 0.5 h
- Maximum tumor concentration of 1,25(OH)2D3 (Tumor; H292 tumor, 20 µg/kg 1,25(OH)2D3 i.p.): 1.70 ng/mL
- Tumor Cmax of 1,25(OH)2D3 (Tumor; H292 tumor, 20 µg/kg 1,25(OH)2D3 i.p. alone or with 250 µg/kg CTA091): 1.7 ng/g and 1.70 ng/g
- Tmax (Tumor; [11]): 2 h
- half-life (Tumor; [11]): 1.95 h
- k el (Tumor; [11]): 9.86e-05 s⁻¹
- Peak tumor concentration of 1,25(OH)2D3 (molar) (Tumor; given that 1 g of tumor has a volume of 1 mL, without or with CTA091): 3.8 nM
- Induction of CYP24 expression in H292 cells in vitro (CYP24 mRNA [4]; 1 nM 1,25(OH)2D3 (Fig. 1A)): induced to express CYP24
- Increase in tumor CYP24 mRNA levels (CYP24 mRNA [5]; single dose of 1,25(OH)2D3, 4 h post-treatment): approximately 4 fold
- Increase in tumor CYP24 mRNA levels (CYP24 mRNA [5]; single dose of 1,25(OH)2D3, after 8 h): ~15 fold

Structure (SMILES): C=C1/C(=C\C=C2/CCC[C@]3(C)[C@@H]([C@H](C)CCS(=N)(=O)c4ccccc4)CC[C@@H]23)C[C@@H](O)C[C@@H]1O (stereo partly drawn) [CTA091]
- Effect on 1,25(OH)2D3-mediated transcription (CYP24 [6]): significantly increases 1,25(OH)2D3-mediated transcription
- Inhibition of 1,25(OH)2D3 catabolism (CYP24 [6]): consistently and maximally inhibits 1,25(OH)2D3 catabolism
- Decrease in plasma clearance of 1,25(OH)2D3 by CTA091 [2, 12]: 20%
- Decrease in tumor clearance of 1,25(OH)2D3 by CTA091 [2, 12]: 46%
- ktc/(ktc+ ktumor elim) ([2]; compartmental model, tumor clearance with versus without CTA091): 0.54
- Plasma clearance of CTA091 relative to 1,25(OH)2D3 [7]: cleared from plasma more rapidly than 1,25(OH)2D3
- +/− CTA091 Ratio, plasma AUC0-inf of 1,25(OH)2D3 [3, 13]: 1.5
- +/− CTA091 Ratio, plasma AUC0–8h of 1,25(OH)2D3 [3, 13]: 1.4
- +/− CTA091 Ratio, plasma Cl/F of 1,25(OH)2D3 [3, 13]: 0.68
- +/− CTA091 Ratio, plasma Cmax of 1,25(OH)2D3 [3, 13]: 1.6
- +/− CTA091 Ratio, plasma Kel of 1,25(OH)2D3 [3, 13]: 0.86
- +/− CTA091 Ratio, plasma Tmax of 1,25(OH)2D3 [3, 13]: 2
- +/− CTA091 Ratio, plasma Vd/F of 1,25(OH)2D3 [3, 13]: 0.79
- +/− CTA091 Ratio, plasma t1/2 of 1,25(OH)2D3 [3, 13]: 1.2
- Increase in 1,25(OH)2D3 plasma levels (Cmax) by co-administered CTA091 ([3]; 250 µg/kg CTA091 with 20 µg/kg 1,25(OH)2D3 i.p.): 1.6 fold
- Increase in 1,25(OH)2D3 plasma terminal half-life by CTA091 ([3]; 250 µg/kg CTA091 with 20 µg/kg 1,25(OH)2D3 i.p., non-compartmental): approximately 1.2 fold
- Effect on CYP27B1 mRNA expression (CYP27B1 mRNA): no effect
- Increase in rat serum 1,25(OH)2D3 Cmax (CYP24 [8]; rat, 500 µg/kg CTA091): 1.5 fold
- Increase in rat serum 1,25(OH)2D3 exposure (CYP24 [8]; rat, 500 µg/kg CTA091): 1.4 fold
- Effect on endogenous 1,25(OH)2D3 levels (CYP24 [8]; [14]): increased endogenous 1,25(OH)2D3 levels
- Effect on serum PTH levels (CYP24 [8]; [14]): decreased serum PTH levels
- +/− CTA091 Ratio, tumor/plasma AUC0–h of 1,25(OH)2D3 (Tumor; [13]): 1.8
- +/− CTA091 Ratio, tumor/plasma Cmax of 1,25(OH)2D3 (Tumor; [13]): 1.7
- Increase in 1,25(OH)2D3 tumor levels by co-administered CTA091 (Tumor; 250 µg/kg CTA091 with 20 µg/kg 1,25(OH)2D3 i.p., H292 tumor): 2.6 fold
- Increase of the transcriptional induction of CYP24 by 1,25(OH)2D3 (CYP24 mRNA [4]; H292 cells, CTA091 with 1,25(OH)2D3, data not shown): approximately 4 fold
- Effect of CTA091 alone on CYP24 gene expression (CYP24 mRNA [4]; H292 cells, data not shown): no effect
